The values that follow come from PubChem BioAssay (NCI).

Among the test systems are SF-539 CNS; SF-295 CNS; COLO 205 colon; ACHN renal; U251 CNS; UO-31 renal; HOP-92 NSCLC; SW-620 colon; HCT-116 colon.
Common to all, as to test: DTP human tumour cell line panel, 48 h

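Assay format: 96-well plates, 48-hour exposure. At the GI50, growth is halved. At the TGI there is no net growth.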 Bounds are passed on as bounds.

In general, GI50 refers to the concentration that inhibits growth by half. By TGI is commonly meant the concentration at which net growth stops. A lower TGI goes with more potent growth arrest.

`CN(C)CC(C(=O)c1ccccc1)c1ccccc1` (stereo unspecified): the GI50 with SF-539 CNS is 2.25 µM; in the assay on SF-295 CNS, 4.52 µM; with COLO 205 colon, 1.77 µM; in the assay with ACHN renal it was 1.36 µM; in the assay on U251 CNS it was 1.56 µM; with UO-31 renal, 1.49 µM. Besides, the figures for the GI50 in the assay with HOP-92 NSCLC, with SW-620 colon and in the assay with HCT-116 colon were 2.28 µM, 0.396 µM and 1.03 µM, respectively. For the same compound, the concentration for total growth inhibition (TGI) turned out to be 5.04 µM in the assay on SF-539 CNS; 18.2 µM in the assay with SF-295 CNS; 3.33 µM in the assay with COLO 205 colon; 2.65 µM in the assay on ACHN renal; 3.13 µM in the assay with U251 CNS; 3.02 µM with UO-31 renal. Further, the TGI in the assay with HOP-92 NSCLC turned out to be 9.54 µM; in the assay on SW-620 colon it was 1.57 µM; in the assay with HCT-116 colon, 2.2 µM.

Take `Nc1nc(-c2ccccc2)c(-c2ccccc2)c(-c2nc(N)nc(-c3ccccc3)c2-c2ccccc2)n1`: the TGI in the assay with SF-539 CNS, in the assay with SF-295 CNS, in the assay with COLO 205 colon, in the assay on ACHN renal, in the assay with U251 CNS and in the assay with UO-31 renal was greater than 100 µM throughout. Also, the TGI with HOP-92 NSCLC, in the assay with SW-620 colon and in the assay on HCT-116 colon was greater than 100 µM in each case.

With `COc1cc(/C=C/C(=O)C(=Cc2ccc(F)c(F)c2)C(=O)/C=C/c2ccc(O)c(OC)c2)ccc1O`, the GI50 was 3.26 µM in the assay on SF-539 CNS; 3.63 µM in the assay on SF-295 CNS; 2.26 µM in the assay on COLO 205 colon; 3.27 µM in the assay on ACHN renal; 1.7 µM with U251 CNS; 3.04 µM in the assay on UO-31 renal. The GI50 was 2.51 µM in the assay on HOP-92 NSCLC, 1.84 µM with SW-620 colon and 1.79 µM with HCT-116 colon. Besides, the TGI in the assay with SF-539 CNS is 13.6 µM; in the assay with SF-295 CNS, 25.1 µM; in the assay with COLO 205 colon, 4.74 µM; with ACHN renal, 19.9 µM; with U251 CNS, 3.51 µM; in the assay on UO-31 renal, 16.8 µM. Moreover, the total growth inhibition concentration (TGI) with HOP-92 NSCLC worked out at 6.05 µM; in the assay on SW-620 colon it was 3.62 µM; in the assay on HCT-116 colon, 4.01 µM.

For the compound `O=C1NC(=NCc2cccs2)SC1Cc1ccc2ncccc2c1` (stereo unspecified), the GI50 in the assay on SF-539 CNS was 10.3 µM; in the assay on SF-295 CNS it was 11.6 µM; in the assay with COLO 205 colon, 10.2 µM; with ACHN renal, 24.7 µM; in the assay on U251 CNS, 17.6 µM; with UO-31 renal, greater than 23.6 µM. The GI50 is 10.3 µM in the assay on HOP-92 NSCLC, 9.16 µM in the assay with SW-620 colon and 10.7 µM in the assay on HCT-116 colon. Moreover, the TGI with SF-539 CNS, in the assay with SF-295 CNS, in the assay on COLO 205 colon, in the assay with ACHN renal, with U251 CNS and with UO-31 renal was greater than 25 µM in each case. The TGI in the assay on HOP-92 NSCLC, with SW-620 colon and in the assay on HCT-116 colon was greater than 25 µM each time.

For `O=C(c1cc(=O)c2ccc(O)cc2o1)c1ccc(Cl)cc1Cl`, the concentration for total growth inhibition (TGI) was greater than 25.4 µM in the assay with SF-539 CNS; greater than 65.9 µM with SF-295 CNS; greater than 38.3 µM in the assay with COLO 205 colon; greater than 100 µM in the assay on ACHN renal; greater than 100 µM in the assay on U251 CNS; greater than 82.2 µM with UO-31 renal. In addition, the TGI in the assay on HOP-92 NSCLC was greater than 73.4 µM; with SW-620 colon, greater than 54.6 µM; in the assay with HCT-116 colon, greater than 54.1 µM.

In the case of `CC/C(=N\Nc1nc2ccccc2n1C)c1ccccn1`, the GI50 is 0.182 µM in the assay with SF-539 CNS; 0.17 µM in the assay on SF-295 CNS; less than 0.01 µM in the assay on COLO 205 colon; less than 0.016 µM with ACHN renal; 0.0863 µM with U251 CNS; 0.0761 µM with UO-31 renal. Further, the GI50 in the assay on HOP-92 NSCLC was 0.184 µM; with SW-620 colon, 0.0393 µM; in the assay with HCT-116 colon, less than 0.01 µM. Further, the concentration for total growth inhibition (TGI) in the assay with SF-539 CNS is 1.62 µM; with SF-295 CNS, 1.28 µM; in the assay with COLO 205 colon, 2.94 µM; in the assay on ACHN renal, 6.28 µM; with U251 CNS, 11 µM; in the assay on UO-31 renal, 1.16 µM. The TGI was 4.82 µM with HOP-92 NSCLC, 15 µM with SW-620 colon and 11.8 µM with HCT-116 colon.

With `N#Cc1ccc(Oc2nccc(-c3c(-c4ccc(F)cc4)ncn3C3CCNCC3)n2)cc1`, the GI50 in the assay on SF-539 CNS was greater than 25 µM; in the assay on SF-295 CNS, 16.6 µM; with COLO 205 colon it was greater than 25 µM; with ACHN renal, greater than 23.7 µM; with U251 CNS it was 11.8 µM; in the assay with UO-31 renal, 11.9 µM. Also, the GI50 is 4.04 µM in the assay on HOP-92 NSCLC, greater than 15.4 µM in the assay on SW-620 colon and 5.45 µM in the assay with HCT-116 colon. For the same compound, the total growth inhibition concentration (TGI) in the assay with SF-539 CNS, with SF-295 CNS, with COLO 205 colon, in the assay with ACHN renal, in the assay with U251 CNS and with UO-31 renal was greater than 25 µM in each case. Besides, the TGI in the assay with HOP-92 NSCLC is greater than 25 µM; in the assay with SW-620 colon, greater than 25 µM; in the assay with HCT-116 colon it was greater than 13.5 µM.

In the case of `COc1cc2c(cc1OCCCCNC(=O)c1cc3ccccc3[nH]1)N=CC1CCCN1C2=O` (stereo unspecified), the GI50 was 8.57 µM in the assay with SF-539 CNS; 12.7 µM in the assay with SF-295 CNS; 16 µM with COLO 205 colon; 22.6 µM in the assay with ACHN renal; 10.5 µM with U251 CNS; 7.16 µM in the assay with UO-31 renal. Also, the GI50 in the assay on HOP-92 NSCLC was 12.2 µM; in the assay with SW-620 colon, 9.84 µM; in the assay with HCT-116 colon, 35.9 µM. The concentration for total growth inhibition (TGI) in the assay on SF-539 CNS was 41.7 µM; with SF-295 CNS it was 41.6 µM; in the assay on COLO 205 colon, greater than 100 µM; in the assay on ACHN renal it was greater than 100 µM; in the assay with U251 CNS, greater than 100 µM; with UO-31 renal, 74.1 µM. Besides, the TGI in the assay with HOP-92 NSCLC is 75.4 µM; with SW-620 colon, 67.6 µM; with HCT-116 colon, greater than 100 µM.

On to `CCCCCCN(CCCCCC)CCCNc1nccc2ccccc12`, for which the GI50 in the assay on SF-539 CNS is 1.94 µM; in the assay on SF-295 CNS, 0.951 µM; in the assay on COLO 205 colon it was 1.48 µM; in the assay with ACHN renal it was 1.9 µM; in the assay on U251 CNS, 1.54 µM; in the assay on UO-31 renal it was 1.35 µM. Also, the GI50 with HOP-92 NSCLC was 1.01 µM; in the assay on SW-620 colon, 1.29 µM; in the assay on HCT-116 colon, 0.832 µM. For the same compound, the TGI in the assay with SF-539 CNS stood at 3.59 µM; in the assay with SF-295 CNS, 2.24 µM; in the assay with COLO 205 colon, 3.07 µM; in the assay with ACHN renal, 4.47 µM; in the assay on U251 CNS, 2.96 µM; with UO-31 renal, 3.04 µM. Moreover, the TGI turned out to be 2.47 µM in the assay on HOP-92 NSCLC, 2.96 µM in the assay on SW-620 colon and 2.2 µM with HCT-116 colon.

Turning to `c1cncc(CNc2ccccc2-c2nnc(Nc3ccc4c(c3)OCO4)o2)c1`, the GI50 in the assay on SF-539 CNS is 0.0815 µM; with SF-295 CNS, 0.0528 µM; in the assay on COLO 205 colon, 0.0411 µM; in the assay on ACHN renal it was 0.717 µM; in the assay with U251 CNS, 0.0452 µM; in the assay on UO-31 renal, 0.31 µM. In addition, the GI50 in the assay on HOP-92 NSCLC is 0.0904 µM; with SW-620 colon, 0.0413 µM; in the assay with HCT-116 colon it was 0.0516 µM. Moreover, the TGI was 0.539 µM with SF-539 CNS; greater than 100 µM in the assay on SF-295 CNS; 0.551 µM in the assay with COLO 205 colon; greater than 100 µM in the assay on ACHN renal; greater than 42.8 µM in the assay on U251 CNS; greater than 100 µM in the assay with UO-31 renal. Besides, the TGI was 28.9 µM in the assay with HOP-92 NSCLC, greater than 100 µM in the assay with SW-620 colon and greater than 100 µM with HCT-116 colon.

As for `O=C1Cc2cc(CCn3ccnc3)c(Cl)cc2N1`, the GI50 in the assay with SF-539 CNS is 60 µM; with SF-295 CNS it was 7.87 µM; with COLO 205 colon it was 15.1 µM; in the assay on ACHN renal, 20.3 µM; in the assay with U251 CNS it was 8.24 µM; in the assay with UO-31 renal, 58 µM. Moreover, the GI50 with HOP-92 NSCLC was 3.54 µM; with SW-620 colon it was 5.02 µM; in the assay with HCT-116 colon, 13.1 µM. The concentration for total growth inhibition (TGI) in the assay on SF-539 CNS, with SF-295 CNS, in the assay on COLO 205 colon, in the assay with ACHN renal, in the assay with U251 CNS and with UO-31 renal was greater than 100 µM in each case. The concentration for total growth inhibition (TGI) in the assay with HOP-92 NSCLC is 91.5 µM; in the assay with SW-620 colon, greater than 100 µM; in the assay with HCT-116 colon, greater than 100 µM.

Take `O=C(CCCn1c2c(sc3ncccc32)c(=O)n2nnc(-c3ccccc3)c12)NCCc1cnc[nH]1`: the GI50 is 0.316 µM with SF-539 CNS; 1.75 µM with SF-295 CNS; 6.28 µM with COLO 205 colon; 15.3 µM in the assay on ACHN renal; 1.28 µM in the assay with U251 CNS; 11.9 µM in the assay on UO-31 renal. For the same compound, the GI50 was 17 µM with HOP-92 NSCLC, 0.331 µM in the assay on SW-620 colon and 0.378 µM in the assay with HCT-116 colon. In addition, the TGI is 14.9 µM in the assay with SF-539 CNS; 16.3 µM with SF-295 CNS; 23.5 µM in the assay on COLO 205 colon; 31 µM in the assay on ACHN renal; 14.9 µM in the assay with U251 CNS; 26.7 µM with UO-31 renal. For the same compound, the concentration for total growth inhibition (TGI) in the assay with HOP-92 NSCLC was found to be 39.5 µM; in the assay with SW-620 colon it was 14.4 µM; in the assay on HCT-116 colon it was 10.1 µM.

On to `COC(=O)[C@]12CC[C@@H](C)[C@H](C)[C@@H]1C1=CC[C@@H]3[C@@]4(C)C[C@@H](OC(=O)c5ccco5)[C@H](O)[C@@](C)(CO)[C@@H]4[C@H](O)C[C@@]3(C)[C@]1(C)CC2`, for which the GI50 is 2.28 µM with SF-539 CNS; 1.84 µM in the assay with SF-295 CNS; 1.82 µM in the assay with COLO 205 colon; 2.76 µM with ACHN renal; 1.97 µM in the assay with U251 CNS; 2.02 µM with UO-31 renal. For the same compound, the GI50 was 2.59 µM in the assay on HOP-92 NSCLC, 1.79 µM with SW-620 colon and 1.88 µM in the assay with HCT-116 colon. Moreover, the total growth inhibition concentration (TGI) with SF-539 CNS turned out to be 5.17 µM; in the assay with SF-295 CNS, 3.87 µM; with COLO 205 colon, 3.44 µM; in the assay on ACHN renal, 7.69 µM; in the assay with U251 CNS, 4.21 µM; with UO-31 renal, 7.42 µM. Also, the TGI with HOP-92 NSCLC worked out at 6.19 µM; in the assay on SW-620 colon, 3.54 µM; with HCT-116 colon, 3.41 µM.
